# System: colon cancer cells (HCT116)
# Test: Cancer cell line growth inhibition (SRB assay)
# Type: cell-based
# Settings: Homo sapiens, HCT-116; HCT116 colon cancer cells, SRB assay; read-out: Cancer Cell Line GI50 Range HCT116
row,Structure (SMILES),GI50 [nM]
1,"O=C(Nc1ccc2[nH]nc(-c3cccc(CN4CCOCC4)c3)c2c1)C(c1ccsc1)N1CCCC1 (centres unmarked) [Example A1, N-(3-(3-(morpholinomethyl)phenyl)-1H-indazol-5-yl)-2-(pyrrolidin-1-yl)-2-(thiophen-3-yl)acetamide]",> 500
2,"CN1CCN(c2ccc(-c3n[nH]c4ccc(NC(=O)C(c5ccsc5)N5CCCC5)cc34)cc2)CC1 (centres unmarked) [Example A2, N-(3-(4-(4-methylpiperazin-1-yl)phenyl)-1H-indazol-5-yl)-2-(pyrrolidin-1-yl)-2-(thiophen-3-yl)acetamide]",< 100
3,"O=C(Nc1ccc2[nH]nc(-c3ccc(CN4CCOCC4)cc3)c2c1)C(c1ccsc1)N1CCCC1 (centres unmarked) [Example A3, N-(3-(4-(morpholinomethyl)phenyl)-1H-indazol-5-yl)-2-(pyrrolidin-1-yl)-2-(thiophen-3-yl)acetamide]",100 to 500
4,"CN(C)CCOc1ccc(-c2n[nH]c3ccc(NC(=O)C(c4ccsc4)N4CCCC4)cc23)cc1 (centres unmarked) [Example A5, N-(3-(4-(2-(dimethylamino)ethoxy)phenyl)-1H-indazol-5-yl)-2-(pyrrolidin-1-yl)-2-(thiophen-3-yl)acetamide]",< 100
5,"O=C(Nc1ccc2[nH]nc(-c3ccc(CCN4CCOCC4)cc3)c2c1)C(c1ccsc1)N1CCCC1 (centres unmarked) [Example A6, N-(3-(4-(2-morpholinoethyl)phenyl)-1H-indazol-5-yl)-2-(pyrrolidin-1-yl)-2-(thiophen-3-yl)acetamide]",100 to 500
6,"COc1cc(-c2n[nH]c3ccc(NC(=O)C(c4ccsc4)N4CCCC4)cc23)ccc1OC1CCNCC1 (centres unmarked) [Example A8, N-(3-(3-methoxy-4-(piperidin-4-yloxy)phenyl)-1H-indazol-5-yl)-2-(pyrrolidin-1-yl)-2-(thiophen-3-yl)acetamide]",< 100
7,"COc1cc(-c2n[nH]c3ccc(NC(=O)C(c4ccsc4)N4CCCC4)cc23)ccc1N1CCN(C)CC1 (centres unmarked) [Example A10, N-(3-(3-methoxy-4-(4-methylpiperazin-1-yl)phenyl)-1H-indazol-5-yl)-2-(pyrrolidin-1-yl)-2-(thiophen-3-yl)acetamide]",100 to 500
8,"CN1CCN(c2ccc(-c3n[nH]c4ccc(NC(=O)C5CCCc6ccccc65)cc34)cc2)CC1 (centres unmarked) [Example A11, N-(3-(4-(4-methylpiperazin-1-yl)phenyl)-1H-indazol-5-yl)-1,2,3,4-tetrahydronaphthalene-1-carboxamide]",100 to 500
9,"COc1cc(-c2n[nH]c3ccc(C(=O)NC(c4ccccc4)C4CC4)cc23)ccc1OC1CCNCC1 (centres unmarked) [Example A13, N-(cyclopropyl(phenyl)methyl)-3-(3-methoxy-4-(piperidin-4-yloxy)phenyl)-1H-indazole-5-carboxamide]",100 to 500
10,"CN1CCc2cc(-c3n[nH]c4ccc(NC(=O)C(c5ccsc5)N5CCCC5)cc34)ccc21 (centres unmarked) [Example A16, N-(3-(1-methylindolin-5-yl)-1H-indazol-5-yl)-2-(pyrrolidin-1-yl)-2-(thiophen-3-yl)acetamide]",100 to 500
11,"CN1CCOc2cc(-c3n[nH]c4ccc(NC(=O)C(c5ccsc5)N5CCCC5)cc34)ccc21 (centres unmarked) [Example A17, N-(3-(4-methyl-3,4-dihydro-2H-benzo[b][1,4]oxazin-7-yl)-1H-indazol-5-yl)-2-(pyrrolidin-1-yl)-2-(thiophen-3-yl)acetamide]",> 500
12,"COc1cc(-c2n[nH]c3ccc(C(=O)NC(c4ccccc4)C4CC4)cc23)ccc1OC1CCN(C)CC1 (centres unmarked) [Example A19, N-(cyclopropyl(phenyl)methyl)-3-(3-methoxy-4-((1-methylpiperidin-4-yl)oxy)phenyl)-1H-indazole-5-carboxamide]",100 to 500
13,"O=C(Nc1ccc2[nH]nc(-c3ccc4c(c3)OCCCO4)c2c1)C(c1ccsc1)N1CCCC1 (centres unmarked) [Example A20, N-(3-(3,4-dihydro-2H-benzo[b][1,4]dioxepin-7-yl)-1H-indazol-5-yl)-2-(pyrrolidin-1-yl)-2-(thiophen-3-yl)acetamide]",100 to 500
14,"COc1cc(-c2n[nH]c3ccc(NC(=O)C(c4ccsc4)N4CCCC4)cc23)ccc1OC1CCN(C)CC1 (centres unmarked) [Example A21, N-(3-(3-methoxy-4-((1-methylpiperidin-4-yl)oxy)phenyl)-1H -indazol-5-yl)-2-(pyrrolidin-1-yl)-2-(thiophen-3-yl)acetamide]",< 100
15,"O=C(Nc1ccc2[nH]nc(-c3ccc(N4CCOCC4)cc3)c2c1)C1CCCc2ccccc21 (centres unmarked) [Example A22, N-(3-(4-morpholinophenyl)-1H-indazol-5-yl)-1,2,3,4-tetrahydronaphthalene-1-carboxamide]",100 to 500
16,"CN1CCC(Oc2ccc(-c3n[nH]c4ccc(C(=O)N[C@@H]5CCCc6ccccc65)cc34)cc2)CC1 [Example A26, (R)-3-(4-((1-methylpiperidin-4-yl)oxy)phenyl)-N-(1,2,3,4-tetrahydronaphthalen-1-yl)-1H-indazole-5-carboxamide]",100 to 500
17,"O=C(Nc1ccc2[nH]nc(-c3ccc(OC4CCNCC4)cc3)c2c1)C(c1ccsc1)N1CCCC1 (centres unmarked) [Example A28, N-(3-(4-(piperidin-4-yloxy)phenyl)-1H-indazol-5-yl)-2-(pyrrolidin-1-yl)-2-(thiophen-3-yl)acetamide]",< 100
18,"CC(C)N1CCC(Oc2ccc(-c3n[nH]c4ccc(NC(=O)C(c5ccsc5)N5CCCC5)cc34)cc2)CC1 (centres unmarked) [Example A30, N-(3-(4-((1-isopropylpiperidin-4-yl)oxy)phenyl)-1H-indazol-5-yl)-2-(pyrrolidin-1-yl)-2-(thiophen-3-yl)acetamide]",< 100

row,Structure (SMILES),GI50 [nM]
1,"CN1CCC(Oc2ccc(-c3n[nH]c4ccc(NC(=O)C(c5ccsc5)N5CCCCC5)cc34)cc2)CC1 (centres unmarked) [Example A31, N-(3-(4-((1-methylpiperidin-4-yl)oxy)phenyl)-1H-indazol-5-yl)-2-(piperidin-1-yl)-2-(thiophen-3-yl)acetamide]",< 100
2,"O=C(Nc1ccc2[nH]nc(-c3ccc(N4CCOCC4)cc3)c2c1)C(c1ccsc1)N1CCCCC1 (centres unmarked) [Example A32, N-(3-(4-morpholinophenyl)-1H-indazol-5-yl)-2-(piperidin-1-yl)-2-(thiophen-3-yl)acetamide]",< 100
3,"CN1CCC(Oc2ccc(-c3n[nH]c4ccc(NC(=O)C(c5ccsc5)C5CCCC5)cc34)cc2)CC1 (centres unmarked) [Example A36, 2-cyclopentyl-N-(3-(4-((1-methylpiperidin-4-yl)oxy)phenyl)-1H-indazol-5-yl)-2-(thiophen-3-yl)acetamide]",< 100
4,"COC(C(=O)Nc1ccc2[nH]nc(-c3ccc(OC4CCN(C)CC4)cc3)c2c1)c1ccsc1 (centres unmarked) [Example A37, 2-methoxy-N-(3-(4-((1-methylpiperidin-4-yl)oxy)phenyl)-1H-indazol-5-yl)-2-(thiophen-3-yl)acetamide]",< 100
5,"C[C@H](NC(=O)c1ccc2[nH]nc(-c3ccc(OC4CCN(C)CC4)cc3)c2c1)C1CCCCC1 [Example A38, (S)-N-(1-cyclohexylethyl)-3-(4-((1-methylpiperidin-4-yl)oxy)phenyl)-1H-indazole-5-carboxamide]",< 100
6,"CN1CCC(Oc2ccc(-c3n[nH]c4ccc(NC(=O)C5c6ccccc6CCN5C)cc34)cc2)CC1 (centres unmarked) [Example A39, 2-methyl-N-(3-(4-((1-methylpiperidin-4-yl)oxy)phenyl)-1H -indazol-5-yl)-1,2,3,4-tetrahydroisoquinoline-1-carboxamide]",< 100
7,"C[C@H](NC(=O)c1ccc2[nH]nc(-c3ccc(N4CCOCC4)cc3)c2c1)C1CCCCC1 [Example A40, (S)-N-(1-cyclohexylethyl)-3-(4-morpholinophenyl)-1H-indazole-5-carboxamide]",100 to 500
8,"CN(C)CCCOc1ccc(-c2n[nH]c3ccc(NC(=O)C(c4ccsc4)N4CCCC4)cc23)cc1 (centres unmarked) [Example A43, N-(3-(4-(3-(dimethylamino)propoxy)phenyl)-1H-indazol-5-yl)-2-(pyrrolidin-1-yl)-2-(thiophen-3-yl)acetamide]",< 100
9,"O=C(Nc1ccc2[nH]nc(-c3ccc(OCCN4CCCC4)cc3)c2c1)C(c1ccsc1)N1CCCC1 (centres unmarked) [Example A44, 2-(pyrrolidin-1-yl)-N-(3-(4-(2-(pyrrolidin-1-yl)ethoxy)phenyl)-1H-indazol-5-yl)-2-(thiophen-3-yl)acetamideamide]",< 100
10,"C[C@H]1CCCN1[C@H](C(=O)Nc1ccc2[nH]nc(-c3ccc(N4CCOCC4)cc3)c2c1)c1ccsc1 [Example A47, (S)-2-((S)-2-methylpyrrolidin-1-yl)-N-(3-(4-morpholinophenyl)-1H-indazol-5-yl)-2-(thiophen-3-yl)acetamide]",100 to 500
11,"C[C@@H](NC(=O)c1ccc2[nH]nc(-c3ccc(N4CCOCC4)cc3)c2c1)C1CCCCC1 [Example A48, (R)-N-(1-cyclohexylethyl)-3-(4-morpholinophenyl)-1H-indazole-5-carboxamide]",> 500
12,"O=C(N[C@H](c1ccccc1)C1CC1)c1ccc2[nH]nc(-c3ccc(N4CCOCC4)cc3)c2c1 [Example A49, (S)-N-(cyclopropyl(phenyl)methyl)-3-(4-morpholinophenyl)-1H-indazole-5-carboxamide]",100 to 500
13,"O=C(N[C@@H](c1ccccc1)C1CC1)c1ccc2[nH]nc(-c3ccc(N4CCOCC4)cc3)c2c1 [Example A51, (R)-N-(cyclopropyl(phenyl)methyl)-3-(4-morpholinophenyl)-1H-indazole-5-carboxamide]",100 to 500
14,"C[C@@H](NC(=O)c1ccc2[nH]nc(-c3ccc(N4CCOCC4)cc3)c2c1)c1cccs1 [Example A53, (R)-3-(4-morpholinophenyl)-N-(1-(thiophen-2-yl)ethyl)-1H-indazole-5-carboxamide]",100 to 500
15,"C[C@@H](NC(=O)c1ccc2[nH]nc(-c3ccc(OC4CCN(C)CC4)cc3)c2c1)c1cccs1 [Example A55, (R)-3-(4-((1-methylpiperidin-4-yl)oxy)phenyl)-N-(1-(thiophen-2-yl)ethyl)-1H-indazole-5-carboxamide]",< 100
16,"CC[C@@H](NC(=O)c1ccc2[nH]nc(-c3ccc(N4CCOCC4)cc3)c2c1)c1cccs1 [Example A58, (R)-3-(4-morpholinophenyl)-N-(1-(thiophen-2-yl)propyl)-1H-indazole-5-carboxamide]",100 to 500
17,"CN1CCC(Oc2ccc(-c3n[nH]c4ccc(NC(=O)Nc5ccccc5Cl)cc34)cc2)CC1 [Example A62, 1-(2-chlorophenyl)-3-(3-(4-((1-methylpiperidin-4-yl)oxy)phenyl)-1H-indazol-5-yl)urea]",> 500
